IC50, MIC and Solubility data for one compound are collected here from patent US5874592A, “Physiologically active substance EI-2128-1” (Kyowa Hakko Kogyo Co., Ltd., priority 1996, dated 1999).

≈ marks a conversion by molar mass, not a printed value.

Broadly, the MIC is the lowest concentration found to suppress growth. Read a low MIC as greater potency.

The subject of series [1] is production of IL-1β by human monocyte-derived THP-1 cells. Nature of the series: Inhibitory activity against the production of IL-1β by LPS-stimulated THP-1 cells (ELISA). The following applies: LPS 25 μg/ml, 4 hours, PMA-differentiated THP-1 cells, read-out: 50% inhibitory concentration against the IL-1 production by THP-1 cells stimulated by LPS. In kind it is cell-based. How it is done: The inhibitory activity of the compound of the present invention, EI-2128-1, against the production of IL-1β by human monocyte-derived THP-1 cells (ATCC No. TIB 202) was examined in the following manner. The amount of IL-1β was determined by the ELISA method.
THP-1 cells were suspended in RPMI1640 medium (Nissui Pharmaceutical Co., Ltd.) containing 10% inactivated fetal calf serum at a concentration of 1×10^5 cells/ml. The cell suspension was put into wells of a 24-well plate in an amount of 1 ml/well. Phorbol 12-myristate 13-acetate (PMA, final concentration: 30 nM) was added to the wells, followed by incubation in a 5% CO2 -incubator at 37° C. for 65 hours to differentiate the cells into macrophage.
Then, the plate was gently washed with serum-free RPMI1640 medium to remove the cells which were not adhered to the wells, and the residue was cultured for 4 hours in serum-free RPMI1640 medium (1 ml/well) containing lipopolysaccharide (LPS, final concentration: 25 μg/ml) and the test compound (final concentration: 0.05-50 μg/ml).
After the completion of culturing, the amount of IL-1β released into the culture supernatant was determined by using an IL-1β determination kit (Amersham Corp.).
The IL-1 production inhibition rate was calculated according to the following equation to obtain IC50 (50% inhibitory concentration).
IL-1 production inhibition rate (%)=(A-B)/(A-C)×100 […]
(In general: In an ELISA, binding on a coated surface is turned into a signal by an enzyme label.)

For series [2], the system named is Candida albicans ATCC 10231. Nature of the series: Antibacterial activity, agar dilution method. In kind it is cell-based. Particulars: ATCC10231; Candida albicans ATCC 10231, agar dilution, pH 7.0. For orientation: In agar dilution the substance is mixed into plates at graded concentrations.
Series [3] relates to Enterococcus hirae ATCC 10541. Nature of the series: Antibacterial activity, agar dilution method. It counts as cell-based. Particulars: ATCC10541; Enterococcus hirae ATCC 10541, agar dilution, pH 7.0.
Series [4] has as its system Staphylococcus aureus subsp. aureus ATCC 6538P. Nature of the series: Antibacterial activity, agar dilution method. It counts as cell-based. The following applies: ATCC6538P, pH 7.0.
The subject of series [5] is Bacillus subtilis No. 10707. The series can be described thus: Antibacterial activity, agar dilution method. It counts as cell-based. The following applies: Bacillus subtilis No. 10707, agar dilution, pH 7.0.
Series [6] has as its system Proteus vulgaris ATCC 6897. Nature of the series: Antibacterial activity, agar dilution method. It counts as cell-based. Particulars: ATCC6897; Proteus vulgaris ATCC 6897, agar dilution, pH 7.0.
Series [7] concerns Klebsiella pneumoniae subsp. pneumoniae ATCC 10031. The series can be described thus: Antibacterial activity, agar dilution method. It counts as cell-based. Particulars: ATCC10031; Klebsiella pneumoniae subsp. pneumoniae ATCC 10031, agar dilution, pH 7.0.
The nature of series [8]: Solubility. It counts as physicochemical. Particulars: methanol, acetonitrile, and chloroform.

With `CCCCCCC(C)CC(C)/C=C/C(=O)NC1CC2(OC1O)C1OC1C(=O)C1OC12` (centres unmarked) [EI-2128-1], the IC50 in series [1] came to 100 nM. Also, the minimal inhibitory concentration (MIC) was 42 µg/mL (≈ 99.6 µM) in series [2]; 0.33 µg/mL (≈ 0.783 µM) in series [3]; 0.33 µg/mL (≈ 0.783 µM) in series [4]; 0.16 µg/mL (≈ 0.38 µM) in series [5]; 42 µg/mL (≈ 99.6 µM) in series [6]; 21 µg/mL (≈ 49.8 µM) in series [7]. The Solubility result in series [8] is “Readily soluble in methanol, acetonitrile, and chloroform”.
